According to PMC12797170, “Potent Competitive Inhibitors of Ecto-5′-nucleotidase (CD73) based on 6‑(Het)aryl-7-deazapurine Ribonucleoside 5′‑O‑Bisphosphonates” (ACS Pharmacology & Translational Science, 2025):
In brackets after ≈: the same amount, converted by molar mass.

How the values were obtained:
[1] = In vivo pharmacokinetic study, intravenous; parameters: species or system male CD-1 mice; conditions: plasma, 1 mg/kg, intravenous; for half-life: male, CD-1, mouse, iv, footnote: t1/2 stability in plasma, text: half-life in mouse PK; for clearance: mouse, male CD-1 mice, single dose, read-out: Cl (obs), observed clearance
Procedure: The pharmacokinetic study was performed by Bienta (Enamine Biology Services) using male CD-1 mice (3 animals, 9 weeks old, body weight ranging from 29.2 to 33.7 g) following intravenous administration. Levels of the test compound were determined by LC-MS/MS in blood plasma over time (seven sampling time points: 5, 15, 30, 60, 120, 240, and 480 min) after a single dose.
Animal treatment and samples preparation were conducted by the Animal Laboratory personnel at Enamine/Bienta.

in vitro [2] = conditions: mouse, plasma
[3] = Plasma protein binding, mouse plasma; assay type: in vitro ADME; conditions: mouse, plasma, mouse plasma protein binding; read-out: PPB (m) (converted)
Procedure: (§1) Plasma protein binding of the investigated compounds was determined using equilibrium dialysis in single-use Rapid Equilibrium Dialysis devices with an 8 kDa molecular weight cutoff (Thermo Fisher Scientific), following the manufacturer’s protocol. In brief, 50 μL of undiluted human plasma (Biowest), spiked with the test compound at a final concentration of 100 μM, was added to the sample chamber, while 300 μL of phosphate-buffered saline (PBS) was placed in the buffer chamber. Devices were incubated for 4 h at 37 °C with gentle shaking.
(§2) After dialysis, 7.5 μL aliquots from both the plasma and buffer chambers were transferred directly into wells of a 384-well plate. To equalize the matrices for downstream processing, 7.5 μL of PBS was added to each plasma aliquot, and 7.5 μL of plasma was added to each buffer aliquot. Proteins were precipitated by adding four volumes of ice-cold methanol to each well, followed by thorough mixing and incubation at – 20 °C for 30 min. Plates were then stored overnight at 8 °C. Prior to analysis, the plate was centrifuged at 2,000 × g for 20 min at 8 °C. […] The fraction of unbound compound was calculated using the following equations: %Free=c(bufferchamber)/c(plasmachamber)*100% %Bound=100%−%Free

[4] = Microsomal stability assay, human liver microsomes; assay type: in vitro ADME; conditions: 10 μM
[5] = target: T1, recombinant human CD73 (hCD73) (Homo sapiens, UniProt P21589); test: CD73 activity assay on recombinant human CD73; assay type: biochemical; conditions: ΔGexp = RT ln Ki
T1 sequence (P21589 27-574): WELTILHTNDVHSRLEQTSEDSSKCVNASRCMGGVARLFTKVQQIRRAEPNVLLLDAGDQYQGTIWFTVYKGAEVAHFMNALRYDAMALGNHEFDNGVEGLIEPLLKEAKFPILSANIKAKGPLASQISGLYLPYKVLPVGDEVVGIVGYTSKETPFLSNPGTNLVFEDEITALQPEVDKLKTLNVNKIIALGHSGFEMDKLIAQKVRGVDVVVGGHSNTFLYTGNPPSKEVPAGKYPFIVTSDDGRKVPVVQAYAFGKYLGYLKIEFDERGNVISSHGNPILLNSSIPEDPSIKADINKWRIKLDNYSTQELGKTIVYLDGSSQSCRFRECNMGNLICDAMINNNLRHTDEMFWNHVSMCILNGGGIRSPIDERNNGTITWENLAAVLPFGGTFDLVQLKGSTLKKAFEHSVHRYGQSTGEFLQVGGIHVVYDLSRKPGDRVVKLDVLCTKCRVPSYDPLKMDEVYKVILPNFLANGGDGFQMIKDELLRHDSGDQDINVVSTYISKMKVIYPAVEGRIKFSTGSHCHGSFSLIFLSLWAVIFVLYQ

[6] = Kinetic solubility in PBS; assay type: physicochemical; conditions: phosphate-buffered saline, pH 7.4, aqueous buffer, kinetic from dmso stock
Procedure: Test compounds were prepared as 10 mM stock solutions in DMSO and diluted in phosphate-buffered saline (PBS, pH 7.4) to a 100 μM solution, which was then aliquoted in duplicate. The duplicate samples were incubated in Multiscreen PCF Filter Plates (Merck Millipore) with sealed bottom at room temperature on a shaker for 2 h to allow equilibration. Following incubation, the samples were centrifuged into nonsterile, flat-bottom 96-well plates at 2,200 RCF for 12 min. Supernatants were then diluted 1:99 in a solution of 50% acetonitrile containing 0.1% DMSO. The diluted samples were transferred to 384-well Echo plates, which contained prespotted calibration standards prepared by Echo transfer of 10 mM and 1 mM DMSO stock solutions, resulting in calibration points ranging from 0.05 to 4 μM. Samples and standards were subsequently analyzed by Echo-MS.

[7] = Plasma protein binding, equilibrium dialysis, human plasma; assay type: in vitro ADME; conditions: undiluted plasma, Table 6, human plasma, read-out: fup, fraction unbound in human plasma
Procedure: as §1, §2

in vitro [8] = conditions: human, plasma
[9] = Microsomal stability assay, mouse liver microsomes; assay type: in vitro ADME; conditions: 10 μM

SMILES | half-life [1] [h] | clearance [1] [mL/min/kg] | half-life at 10 µM (in vitro [2]) [h] | fraction unbound at 4 h, 100 µM [3] | Mics (hu) comp remaining 60 min [4] [%] | dG_exp, experimental binding free energy [5] | solubility at 2 h [6] [µM] | fraction unbound at 4 h, 100 µM [7] | half-life at 10 µM (in vitro [8]) [h] | Mics (m) comp remaining 60 min [9] [%]
O=P(O)(O)CP(=O)(O)OC[C@H]1O[C@@H](n2ccc3c(-c4cccc5ccccc45)ncnc32)[C@@H](F)[C@@H]1O [34A.6] | 1.3 | 19 | > 2 | 0.065 | 97 | –11.8 kcal/mol | 167 (≈ 89.7 µg/mL) | 0.017 | > 2 | 94
O=P(O)(O)CP(=O)(O)OC[C@H]1O[C@@H](n2ccc3c(-c4ccc5ccccc5c4)ncnc32)[C@@H](F)[C@@H]1O [34A.7] | 3.13 | 7.2 | > 2 | 0.022 | 94 | –11.8 kcal/mol | 82 (≈ 44.1 µg/mL) | 0.002 | > 2 | 90
O=P(O)(O)CP(=O)(O)OC[C@H]1O[C@@H](n2ccc3c(-c4cccc5c4CCCC5)ncnc32)[C@@H](F)[C@@H]1O [34A.12] | – | – | > 2 | 0.055 | 96 | –12.4 kcal/mol | 75 (≈ 40.6 µg/mL) | 0.007 | > 2 | 115
O=P(O)(O)CP(=O)(O)OC[C@H]1O[C@@H](n2ccc3c(-c4ccc5c(c4)CCCC5)ncnc32)[C@@H](F)[C@@H]1O [34A.17] | – | – | > 2 | 0.253 | 90 | –11.8 kcal/mol | 73 (≈ 39.5 µg/mL) | 0.05 | > 2 | 89
O=P(O)(O)CP(=O)(O)OC[C@H]1O[C@@H](n2ccc3c(-c4ccc(F)c5ccccc45)ncnc32)[C@@H](F)[C@@H]1O [34A.23] | – | – | > 2 | 0.017 | 98 | –12.3 kcal/mol | 100 (≈ 55.5 µg/mL) | 0.001 | > 2 | 116
O=P(O)(O)CP(=O)(O)OC[C@H]1O[C@@H](n2ccc3c(-c4ccnc5ccccc45)ncnc32)[C@@H](F)[C@@H]1O [34A.28] | 1.32 | 18 | > 2 | 0.058 | 102 | –12.5 kcal/mol | 100 (≈ 53.8 µg/mL) | 0.014 | > 2 | 101
